Source: PMC4939481 (Bioorganic & medicinal chemistry letters, 2016)

Experiments:
[1] = target: T1, recombinant human TDP2 (hTDP2) (Homo sapiens, UniProt O95551); assay: Inhibition of recombinant human TDP2; format: biochemical, H. sapiens
T1 sequence (O95551 1-362): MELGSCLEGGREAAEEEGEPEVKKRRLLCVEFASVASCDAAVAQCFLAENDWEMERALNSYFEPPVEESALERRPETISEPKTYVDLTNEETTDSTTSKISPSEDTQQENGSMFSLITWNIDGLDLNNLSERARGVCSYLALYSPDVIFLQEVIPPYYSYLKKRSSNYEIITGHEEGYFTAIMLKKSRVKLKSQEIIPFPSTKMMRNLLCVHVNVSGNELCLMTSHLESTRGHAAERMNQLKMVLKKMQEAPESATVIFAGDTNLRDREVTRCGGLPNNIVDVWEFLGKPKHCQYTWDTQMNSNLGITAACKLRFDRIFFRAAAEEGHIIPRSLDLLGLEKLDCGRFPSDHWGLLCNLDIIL

[2] = target: recombinant human TDP1 (hTDP1) (Homo sapiens, UniProt Q9NUW8); assay: Inhibition of recombinant human TDP1; format: biochemical, H. sapiens
Chain of recombinant human TDP1 (hTDP1) (Q9NUW8 whole entry): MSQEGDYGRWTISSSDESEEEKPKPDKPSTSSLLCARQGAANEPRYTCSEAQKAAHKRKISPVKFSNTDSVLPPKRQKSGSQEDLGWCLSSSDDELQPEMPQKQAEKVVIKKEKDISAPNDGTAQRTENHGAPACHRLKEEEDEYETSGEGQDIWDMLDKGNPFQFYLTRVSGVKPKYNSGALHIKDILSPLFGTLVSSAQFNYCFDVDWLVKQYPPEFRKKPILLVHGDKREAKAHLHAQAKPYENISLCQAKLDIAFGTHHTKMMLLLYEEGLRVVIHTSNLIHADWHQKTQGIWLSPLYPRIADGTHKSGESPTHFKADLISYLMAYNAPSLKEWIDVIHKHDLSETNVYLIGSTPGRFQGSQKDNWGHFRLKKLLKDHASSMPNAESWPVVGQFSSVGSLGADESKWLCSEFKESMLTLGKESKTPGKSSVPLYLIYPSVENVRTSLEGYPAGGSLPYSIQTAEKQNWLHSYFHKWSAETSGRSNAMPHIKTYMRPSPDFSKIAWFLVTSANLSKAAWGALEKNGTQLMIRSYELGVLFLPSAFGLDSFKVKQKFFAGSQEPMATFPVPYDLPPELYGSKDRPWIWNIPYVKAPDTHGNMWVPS

## O=C(Cc1ccccc1)NC(CSSCC(NC(=O)Cc1ccccc1)C(=O)O)C(=O)O (stereo not drawn) [NSC3198]
[1]
  IC50: 9.5 µM

## COc1ccc(CC2C(=O)N(c3ccc([N+](=O)[O-])cc3)N=C2C(=O)O)cc1Oc1ccc(F)cc1 (stereo not drawn) [Compound 21]
[2]
  IC50: > 200 µM
[1]
  IC50: 20 µM
